# From the supplement of paper PMC11061612
# Key:
# Assay in all cases: Bliss excess, mean over the matrix (fraction); higher = more synergy
# [1] = system: EFO-21 (Ovarian Carcinoma)
# Outline: (§1)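 Cell lines grown in DMEM/F12 or RPMI with 10% FBS were plated in 1536-well plates and held 24 hours at 37°C, 5% CO2 before 72 hours of exposure to two-drug dose matrices, with DMSO typically at 0.2%. CellTiter-Glo 2.0 luminescence gave viability, which was converted to inhibition. Vehicle wells were set to 0 and blank wells to 1. Combination Emax is the second-highest inhibition in the matrix, and Bliss excess is the observed combination effect minus the expected EA + EB − EA·EB, where EA and EB are the single-agent effects.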
# [2] = system: SK-N-AS (Neuroblastoma)
# Outline: as §1
# [3] = system: OE33 (Esophageal Adenocarcinoma)
# Outline: as §1
# [4] = system: MOG-G-UVW (Low Grade Glioma)
# Outline: as §1
# [5] = system: MDA-MB-453 (Breast Carcinoma)
# Outline: as §1
# [6] = system: ME-180 (Cervical Carcinoma)
# Outline: as §1
# [7] = system: SW982 (Other Solid Carcinomas)
# Outline: as §1
# [8] = system: DU-145 (Prostate Carcinoma)
# Outline: as §1
# [9] = system: Ca-Ski (Cervical Carcinoma)
# Outline: as §1
# [10] = system: NCI-H522 (Lung Adenocarcinoma)
# Outline: as §1
# [11] = system: HAL-01 (B-Lymphoblastic Leukemia)
# Outline: as §1
compound,measurement,setting,value
"C[C@@H](Nc1cc(F)cc(F)c1)c1cc(C(=O)N(C)C)cc2c(=O)cc(N3CCOCC3)oc12 [AZD8186] + CC(=O)c1c(C)c2cnc(Nc3ccc(N4CCNCC4)cn3)nc2n(C2CCCC2)c1=O [Palbociclib] (first compound max 10 µM, 7x7, partner max 10 µM)",Bliss excess,[1],-0.0175
same,Bliss excess,[2],0.0334
same,Bliss excess,[3],0.0115
same,Bliss excess,[4],0.11
same,Bliss excess,[5],0.0491
same,Bliss excess,[6],0.0177
same,Bliss excess,[7],0.0551
same,Bliss excess,[8],0.0147
same,Bliss excess,[9],-0.0285
same,Bliss excess,[10],-0.0596
same,Bliss excess,[11],-0.0022
"C[C@@H](Oc1cc(-c2cnn(C3CCNCC3)c2)cnc1N)c1c(Cl)ccc(F)c1Cl [Crizotinib] + CC1=C(C(=CC=C1)Cl)NC(=O)C2=CN=C(S2)NC3=CC(=NC(=N3)C)N4CCN(CC4)CCO [Dasatinib] (first compound max 10 µM, 7x7, partner max 2 µM)",Bliss excess,[1],0.0054
same,Bliss excess,[2],-0.0164
same,Bliss excess,[3],0.0828
same,Bliss excess,[4],0.182
same,Bliss excess,[5],-0.0494
same,Bliss excess,[6],0.038
same,Bliss excess,[7],0.0386
same,Bliss excess,[8],0.0158
same,Bliss excess,[9],0.0454
same,Bliss excess,[10],-0.0033
same,Bliss excess,[11],-0.0172
"C[C@@H](Oc1cc(-c2cnn(C3CCNCC3)c2)cnc1N)c1c(Cl)ccc(F)c1Cl [Crizotinib] + Cn1cnc2c(F)c(Nc3ccc(Br)cc3Cl)c(C(=O)NOCCO)cc21 [Selumetinib] (first compound max 10 µM, 7x7, partner max 10 µM)",Bliss excess,[1],-0.0233
same,Bliss excess,[2],-0.0118
same,Bliss excess,[3],-0.0199
same,Bliss excess,[4],0.104
same,Bliss excess,[5],-0.0374
same,Bliss excess,[6],0.0308
same,Bliss excess,[7],0.0165
same,Bliss excess,[8],-0.0321
same,Bliss excess,[9],0.0464
same,Bliss excess,[10],-0.0495
same,Bliss excess,[11],-0.0267
"CS(=O)(=O)CCNCc1ccc(-c2ccc3ncnc(Nc4ccc(OCc5cccc(F)c5)c(Cl)c4)c3c2)o1 [Lapatinib] + Cn1cnc2c(F)c(Nc3ccc(Br)cc3Cl)c(C(=O)NOCCO)cc21 [Selumetinib] (first compound max 10 µM, 7x7, partner max 10 µM)",Bliss excess,[1],0.0118
same,Bliss excess,[2],0.0034
same,Bliss excess,[3],-0.0143
same,Bliss excess,[4],0.024
same,Bliss excess,[5],-0.0421
same,Bliss excess,[6],-0.028
same,Bliss excess,[7],0.034
same,Bliss excess,[8],0.0008
same,Bliss excess,[9],-0.0185
same,Bliss excess,[10],-0.0304
same,Bliss excess,[11],0.0997
"O=C(c1cc(Cc2n[nH]c(=O)c3ccccc23)ccc1F)N1CCN(C(=O)C2CC2)CC1 [Olaparib] + CC1(C)CCC(CN2CCN(c3ccc(C(=O)NS(=O)(=O)c4ccc(NCC5CCOCC5)c([N+](=O)[O-])c4)c(Oc4cnc5[nH]ccc5c4)c3)CC2)=C(c2ccc(Cl)cc2)C1 [Venetoclax] (first compound max 10 µM, 7x7, partner max 1 µM)",Bliss excess,[1],-0.0495
same,Bliss excess,[2],-0.031
same,Bliss excess,[3],-0.0457
same,Bliss excess,[4],0.001
same,Bliss excess,[5],-0.0323
same,Bliss excess,[6],-0.0274
same,Bliss excess,[7],-0.0429
same,Bliss excess,[8],-0.0254
same,Bliss excess,[9],-0.0069
same,Bliss excess,[10],-0.0627
same,Bliss excess,[11],0.122
"O=C(c1cc(Cc2n[nH]c(=O)c3ccccc23)ccc1F)N1CCN(C(=O)C2CC2)CC1 [Olaparib] + CN(CC[C@H](CSC1=CC=CC=C1)NC2=C(C=C(C=C2)S(=O)(=O)NC(=O)C3=CC=C(C=C3)N4CCC(CC4)[C@H](C5=CC=CC=C5C6=CC=C(C=C6)Cl)O)S(=O)(=O)C(F)(F)F)CCO [AZD4320] (first compound max 10 µM, 7x7, partner max 1 µM)",Bliss excess,[1],-0.0415
same,Bliss excess,[2],-0.0291
same,Bliss excess,[3],-0.037
same,Bliss excess,[4],-0.0009
same,Bliss excess,[5],-0.0342
same,Bliss excess,[6],-0.021
same,Bliss excess,[7],0.0389
same,Bliss excess,[8],-0.0305
same,Bliss excess,[9],0.0083
same,Bliss excess,[10],-0.0566
same,Bliss excess,[11],0.0353
"O=C(c1cc(Cc2n[nH]c(=O)c3ccccc23)ccc1F)N1CCN(C(=O)C2CC2)CC1 [Olaparib] + COc1nnc2ccc(N3CCC(c4ccc(OCCN5CCN(C)C(=O)[C@H]5C)cc4)CC3)nn12 [AZD5153] (first compound max 10 µM, 7x7, partner max 1 µM)",Bliss excess,[1],-0.0719
same,Bliss excess,[2],-0.0662
same,Bliss excess,[3],-0.057
same,Bliss excess,[4],-0.0406
same,Bliss excess,[5],-0.0483
same,Bliss excess,[6],-0.0279
same,Bliss excess,[7],-0.0614
same,Bliss excess,[8],-0.0708
same,Bliss excess,[9],-0.0179
same,Bliss excess,[10],-0.0528
same,Bliss excess,[11],0.007
"O=C(c1cc(Cc2n[nH]c(=O)c3ccccc23)ccc1F)N1CCN(C(=O)C2CC2)CC1 [Olaparib] + Cc1c2c(nn1C)CSCc1cc(n(C)n1)CSc1cc(c3ccccc3c1)OCCCc1c(C(=O)O)n(C)c3c-2c(Cl)ccc13 [AZD5991] (first compound max 10 µM, 7x7, partner max 1 µM)",Bliss excess,[1],-0.0533
same,Bliss excess,[2],-0.0347
same,Bliss excess,[3],-0.0543
same,Bliss excess,[4],-0.0125
same,Bliss excess,[5],-0.0038
same,Bliss excess,[6],-0.0363
same,Bliss excess,[7],-0.0011
same,Bliss excess,[8],-0.0348
same,Bliss excess,[9],-0.0275
same,Bliss excess,[10],-0.0062
same,Bliss excess,[11],-0.0229
"Cc1nc(-c2cn3c(n2)-c2ccc(-c4cnn(C(C)(C)C(N)=O)c4)cc2OCC3)n(C(C)C)n1 [Taselisib] + O=C(Nc1ccc2[nH]nc(-c3ccncc3)c2c1)[C@@H]1CCN(CC(=O)N2CCN(c3ccc(-c4ncccn4)cc3)CC2)C1 [SCH772984] (first compound max 10 µM, 7x7, partner max 5 µM)",Bliss excess,[1],0.0446
same,Bliss excess,[2],0.0187
same,Bliss excess,[3],0.0674
same,Bliss excess,[4],0.0333
same,Bliss excess,[5],0.0207
same,Bliss excess,[6],0.0324
same,Bliss excess,[7],-0.0167
same,Bliss excess,[8],0.0551
same,Bliss excess,[9],0.0833
same,Bliss excess,[10],0.057
same,Bliss excess,[11],-0.0711
"CC1(C)CCC(CN2CCN(c3ccc(C(=O)NS(=O)(=O)c4ccc(NCC5CCOCC5)c([N+](=O)[O-])c4)c(Oc4cnc5[nH]ccc5c4)c3)CC2)=C(c2ccc(Cl)cc2)C1 [Venetoclax] + CS(=O)(=O)CCNCc1ccc(-c2ccc3ncnc(Nc4ccc(OCc5cccc(F)c5)c(Cl)c4)c3c2)o1 [Lapatinib] (first compound max 1 µM, 7x7, partner max 10 µM)",Bliss excess,[1],-0.0323
same,Bliss excess,[2],-0.0432
same,Bliss excess,[3],-0.0315
same,Bliss excess,[4],-0.0012
same,Bliss excess,[5],-0.0106
same,Bliss excess,[6],0.0153
same,Bliss excess,[7],-0.0456
same,Bliss excess,[8],-0.0511
same,Bliss excess,[9],-0.0249
same,Bliss excess,[10],-0.0378
same,Bliss excess,[11],0.102
